Laboratory results: the NIST ThermoML archive (doi:10.1021/acs.jced.9b00507)
± gives the expanded uncertainty stated by the source.

Test: xn = mol fraction of the nth substance listed
Details: 100 kPa, Liquid; for viscosity: Concentric cylinders viscometry; for mass density: Vibrating tube method

CCCCCCn1cc[n+](C)c1.O=[N+]([O-])[O-] [1-hexyl-3-methylimidazolium nitrate] + CCCCCCCCO
Details	mass density [kg/m3]	viscosity [mPa·s]
293.15 K, x1 = 0.0806	856.1 ± 1.3	15.49 ± 1.3
293.15 K, x1 = 0.1591	885.1 ± 1.2	23.39 ± 1.9
293.15 K, x1 = 0.2392	913.2 ± 1.2	34.36 ± 2.8
293.15 K, x1 = 0.3493	949.6 ± 1.2	55.85 ± 4.5
293.15 K, x1 = 0.4396	977.6 ± 1.2	83.56 ± 6.8
293.15 K, x1 = 0.5621	1013.2 ± 1.2	149.62 ± 12
293.15 K, x1 = 0.649	1036.9 ± 1.2	222.84 ± 18
293.15 K, x1 = 0.7407	1060.6 ± 1.3	331.13 ± 28
293.15 K, x1 = 0.8495	1087 ± 1.3	504.66 ± 43
293.15 K, x1 = 0.9397	1107.4 ± 1.4	677.63 ± 59
293.15 K, x1 = 1	1120.3 ± 1.4	804.17 ± 70
298.15 K, x1 = 0.0806	852.6 ± 1.2	11.3 ± 0.91
298.15 K, x1 = 0.1591	881.4 ± 1.2	15.96 ± 1.3
298.15 K, x1 = 0.2392	909.5 ± 1.2	22.23 ± 1.8
298.15 K, x1 = 0.3493	946 ± 1.2	34.83 ± 2.8
298.15 K, x1 = 0.4396	974 ± 1.2	51.05 ± 4.1
298.15 K, x1 = 0.5621	1009.7 ± 1.2	89.33 ± 7.2
298.15 K, x1 = 0.649	1033.6 ± 1.2	133.05 ± 11
298.15 K, x1 = 0.7407	1057.3 ± 1.3	205.44 ± 17
298.15 K, x1 = 0.8495	1083.8 ± 1.3	321.84 ± 27
298.15 K, x1 = 0.9397	1104.4 ± 1.4	446.63 ± 38
298.15 K, x1 = 1	1117.5 ± 1.4	545.25 ± 47
303.15 K, x1 = 0.0806	848.9 ± 1.2	8.53 ± 0.69
303.15 K, x1 = 0.1591	877.7 ± 1.2	11.46 ± 0.92
303.15 K, x1 = 0.2392	905.8 ± 1.2	15.38 ± 1.2
303.15 K, x1 = 0.3493	942.3 ± 1.2	23.23 ± 1.9
303.15 K, x1 = 0.4396	970.3 ± 1.2	33.11 ± 2.7
303.15 K, x1 = 0.5621	1006.1 ± 1.2	54.2 ± 4.4
303.15 K, x1 = 0.649	1030 ± 1.2	78.89 ± 6.4
303.15 K, x1 = 0.7407	1053.8 ± 1.3	122.74 ± 10
303.15 K, x1 = 0.8495	1080.4 ± 1.3	203.15 ± 17
303.15 K, x1 = 0.9397	1101.1 ± 1.4	292.37 ± 25
303.15 K, x1 = 1	1114.3 ± 1.4	369.14 ± 31
308.15 K, x1 = 0.0806	845.3 ± 1.2	6.7 ± 0.54
308.15 K, x1 = 0.1591	874.1 ± 1.2	8.47 ± 0.68
308.15 K, x1 = 0.2392	902.1 ± 1.2	10.57 ± 0.85
308.15 K, x1 = 0.3493	938.6 ± 1.2	14.52 ± 1.2
308.15 K, x1 = 0.4396	966.7 ± 1.2	19.63 ± 1.6
308.15 K, x1 = 0.5621	1002.5 ± 1.2	32.58 ± 2.6
308.15 K, x1 = 0.649	1026.4 ± 1.2	47.1 ± 3.8
308.15 K, x1 = 0.7407	1050.3 ± 1.3	73.28 ± 6
308.15 K, x1 = 0.8495	1077 ± 1.3	127.64 ± 10
308.15 K, x1 = 0.9397	1097.8 ± 1.4	197.38 ± 16
308.15 K, x1 = 1	1111.1 ± 1.4	257.59 ± 21
313.15 K, x1 = 0.0806	841.7 ± 1.2	5.41 ± 0.43
313.15 K, x1 = 0.1591	870.4 ± 1.2	6.35 ± 0.51
313.15 K, x1 = 0.2392	898.4 ± 1.2	7.59 ± 0.61
313.15 K, x1 = 0.3493	934.8 ± 1.2	10 ± 0.8
313.15 K, x1 = 0.4396	963 ± 1.2	12.88 ± 1
313.15 K, x1 = 0.5621	998.8 ± 1.2	19.77 ± 1.6
313.15 K, x1 = 0.649	1022.7 ± 1.2	28.31 ± 2.3
313.15 K, x1 = 0.7407	1046.7 ± 1.2	44.73 ± 3.6
313.15 K, x1 = 0.8495	1073.5 ± 1.3	81.32 ± 6.6
313.15 K, x1 = 0.9397	1094.4 ± 1.4	135.25 ± 11
313.15 K, x1 = 1	1107.8 ± 1.4	185.67 ± 15
318.15 K, x1 = 0.0806	838 ± 1.2	4.25 ± 0.34
318.15 K, x1 = 0.1591	866.7 ± 1.2	4.67 ± 0.37
318.15 K, x1 = 0.2392	894.7 ± 1.2	5.41 ± 0.43
318.15 K, x1 = 0.3493	931.2 ± 1.2	7.05 ± 0.57
318.15 K, x1 = 0.4396	959.3 ± 1.2	8.91 ± 0.72
318.15 K, x1 = 0.5621	995.2 ± 1.2	13.87 ± 1.1
318.15 K, x1 = 0.649	1019.2 ± 1.2	19.95 ± 1.6
318.15 K, x1 = 0.7407	1043.2 ± 1.2	31.92 ± 2.6
318.15 K, x1 = 0.8495	1070.1 ± 1.3	56.98 ± 4.6
318.15 K, x1 = 0.9397	1091.1 ± 1.4	99.97 ± 8.2
318.15 K, x1 = 1	1104.7 ± 1.4	140.18 ± 11
323.15 K, x1 = 0.0806	834.4 ± 1.2	3.56 ± 0.29
323.15 K, x1 = 0.1591	863 ± 1.2	3.84 ± 0.31
323.15 K, x1 = 0.2392	891 ± 1.2	4.28 ± 0.34
323.15 K, x1 = 0.3493	927.5 ± 1.2	5.25 ± 0.42
323.15 K, x1 = 0.4396	955.7 ± 1.2	6.46 ± 0.52
323.15 K, x1 = 0.5621	991.6 ± 1.2	9.46 ± 0.76
323.15 K, x1 = 0.649	1015.7 ± 1.2	13.58 ± 1.1
323.15 K, x1 = 0.7407	1039.8 ± 1.2	22.08 ± 1.8
323.15 K, x1 = 0.8495	1066.8 ± 1.3	42.16 ± 3.4
323.15 K, x1 = 0.9397	1087.9 ± 1.4	76.46 ± 6.2
323.15 K, x1 = 1	1101.6 ± 1.4	110.94 ± 9
